test: Inhibition of hepatitis B virus capsid assembly infected in human HepG2.215 cells assessed as reduction in viral DNA replication measured on day 7 by real time PCR analysis

**Q.** For `CCOC(=O)C1=C(CN2CCOCC2)NC(c2nccn2C)=NC1c1ccc(F)cc1Br` (configuration not stated), which EC50 is on record?
**A.** The EC50 was 0.02 µM.

**Q.** Which EC50 does the source give for `CCOC(=O)C1=C(CN2CCOCC2)NC(c2nccs2)=NC1c1ccc(F)cc1F` (configuration not stated) here?
**A.** The EC50 was 0.026 µM.

**Q.** With `CCOC(=O)C1=C(CN2CC[S+]([O-])CC2)NC(c2nccs2)=NC1c1ccc(F)cc1Cl` (configuration not stated) as the molecule, how does the EC50 read?
**A.** Its EC50 is 0.1 µM.

**Q.** Which EC50 does the source give for `CCOC(=O)C1=C(CN2CCCCC2)NC(c2nccs2)=NC1c1ccc(F)cc1Cl` (configuration not stated) here?
**A.** The EC50 was 3.5 µM.

**Q.** Which EC50 does the source give for `CCOC(=O)C1=C(COCCOC)NC(c2nccs2)=NC1c1ccc(F)cc1Cl` (configuration not stated) here?
**A.** The EC50 was 0.2 µM.

**Q.** Which EC50 does the source give for `CCOC(=O)C1=C(CO)NC(c2nccs2)=NC1c1ccc(F)cc1Cl` (configuration not stated) here?
**A.** The EC50 was > 16.4 µM.

**Q.** Which EC50 does the source give for `CCOC(=O)C1=C(CN2CCOCC2)NC(c2nnc(C)s2)=NC1c1ccc(F)cc1Br` (configuration not stated) here?
**A.** The EC50 was > 16.4 µM.

**Q.** For `CCOC(=O)C1=C(CN2CCOCC2)NC(c2nccs2)=NC1c1ccc(F)cc1-c1ccc(OC)cc1` (configuration not stated), which EC50 is on record?
**A.** Its EC50 is > 16.4 µM.

**Q.** With `CCOC(=O)C1=C(CN2CCOCC2)NC(c2nccs2)=NC1c1ccc(F)cc1-c1ccc(C(F)(F)F)cc1` (configuration not stated) as the molecule, how does the EC50 read?
**A.** Its EC50 is > 16.4 µM.

**Q.** For `CCOC(=O)C1=C(CN2CCOCC2)NC(c2nccs2)=NC1c1ccccc1F` (configuration not stated), which EC50 is on record?
**A.** Its EC50 is 0.074 µM.

**Q.** For `CCOC(=O)C1=C(CN2CCOCC2)NC(c2nccs2)=NC1c1ccccc1Br` (configuration not stated), which EC50 is on record?
**A.** Its EC50 is 0.01 µM.

**Q.** With `CCOC(=O)C1=C(CN2CCS(=O)(=O)CC2)NC(c2nccs2)=NC1c1ccc(F)cc1Cl` (configuration not stated) as the molecule, how does the EC50 read?
**A.** The EC50 was 0.08 µM.

**Q.** Which EC50 does the source give for `CCOC(=O)C1=C(CN2CCSCC2)NC(c2nccs2)=NC1c1ccc(F)cc1Cl` (configuration not stated) here?
**A.** The EC50 was 0.25 µM.

**Q.** With `CCOC(=O)C1=C(CN2CCNCC2)NC(c2nccs2)=NC1c1ccc(F)cc1Cl` (configuration not stated) as the molecule, how does the EC50 read?
**A.** The EC50 was > 16.4 µM.

**Q.** With `CCOC(=O)C1=C(CNCCO)NC(c2nccs2)=NC1c1ccc(F)cc1Cl` (configuration not stated) as the molecule, how does the EC50 read?
**A.** Its EC50 is 0.9 µM.

**Q.** With `CCOC(=O)C1=C(CN)NC(c2nccs2)=NC1c1ccc(F)cc1Cl` (configuration not stated) as the molecule, how does the EC50 read?
**A.** Its EC50 is 5.1 µM.

**Q.** Which EC50 does the source give for `CCCOCC1=C(C(=O)OCC)C(c2ccc(F)cc2Cl)N=C(c2nccs2)N1` (configuration not stated) here?
**A.** The EC50 was 1.2 µM.

**Q.** With `CCOCC1=C(C(=O)OCC)C(c2ccc(F)cc2Cl)N=C(c2nccs2)N1` (configuration not stated) as the molecule, how does the EC50 read?
**A.** Its EC50 is 0.8 µM.

**Q.** Which EC50 does the source give for `CCOC(=O)C1=C(COC)NC(c2nccs2)=NC1c1ccc(F)cc1Cl` (configuration not stated) here?
**A.** The EC50 was > 16.4 µM.

**Q.** For `CC1=C(C(=O)NN)C(c2ccc(F)cc2Cl)N=C(c2nccs2)N1` (configuration not stated), which EC50 is on record?
**A.** Its EC50 is > 16.4 µM.

**Q.** With `CNC(=O)C1=C(C)NC(c2nccs2)=NC1c1ccc(F)cc1Cl` (configuration not stated) as the molecule, how does the EC50 read?
**A.** Its EC50 is > 16.4 µM.

**Q.** For `CC1=C(C(N)=O)C(c2ccc(F)cc2Cl)N=C(c2nccs2)N1` (configuration not stated), which EC50 is on record?
**A.** The EC50 was > 16.4 µM.

**Q.** For `CC1=C(C(=O)O)C(c2ccc(F)cc2Cl)N=C(c2nccs2)N1` (configuration not stated), which EC50 is on record?
**A.** Its EC50 is > 16.4 µM.

**Q.** With `CC1=C(C(=O)OC(C)(C)C)C(c2ccc(F)cc2Cl)N=C(c2nccs2)N1` (configuration not stated) as the molecule, how does the EC50 read?
**A.** The EC50 was > 16.4 µM.

**Q.** For `CC1=C(C(=O)OC(C)C)C(c2ccc(F)cc2Cl)N=C(c2nccs2)N1` (configuration not stated), which EC50 is on record?
**A.** The EC50 was > 16.4 µM.

**Q.** Which EC50 does the source give for `CCOC(=O)C1=C(C)NC(c2nccs2)=NC1c1ccc(F)cc1Cl` (configuration not stated) here?
**A.** The EC50 was 0.15 µM.

**Q.** For `COC(=O)C1=C(C)NC(c2nccs2)=NC1c1ccc(F)cc1Cl` (configuration not stated), which EC50 is on record?
**A.** Its EC50 is 0.25 µM.

**Q.** Which EC50 does the source give for `COC(=O)C1=C(C)NC(c2nccs2)=N[C@H]1c1ccc(F)cc1Cl` here?
**A.** The EC50 was 0.1 µM.

**Q.** Which EC50 does the source give for `CCOC(=O)C1=C(CN2CCOCC2)NC(n2nnc(C)n2)=NC1c1ccc(F)cc1Br` (configuration not stated) here?
**A.** The EC50 was > 16.4 µM.

**Q.** For `CCOC(=O)C1=C(CN2CCOCC2)NC(n2cnnn2)=NC1c1ccc(F)cc1Br` (configuration not stated), which EC50 is on record?
**A.** Its EC50 is > 16.4 µM.

**Q.** For `CCOC(=O)C1=C(CN2CCOCC2)NC(c2ncn(C)n2)=NC1c1ccc(F)cc1Br` (configuration not stated), which EC50 is on record?
**A.** Its EC50 is 4.3 µM.

**Q.** For `CCOC(=O)C1=C(CN2CCOCC2)NC(c2ncc(F)cc2F)=NC1c1ccc(F)cc1Br` (configuration not stated), which EC50 is on record?
**A.** Its EC50 is 0.006 µM.

**Q.** Which EC50 does the source give for `CCOC(=O)C1=C(CN2CCOCC2)N(C)C(c2nccs2)=NC1c1ccc(F)cc1Cl` (configuration not stated) here?
**A.** The EC50 was > 16.4 µM.

**Q.** With `Nc1ncnc2c1ncn2CCOCP(=O)(O)O` [9-[2-phosphonomethoxyethyl]adenine] as the molecule, how does the EC50 read?
**A.** Its EC50 is 0.083 µM.

**Q.** With `Cc1cn([C@@H]2C[C@@H](O)[C@H](CO)O2)c(=O)[nH]c1=O` [CHEBI:63624] as the molecule, how does the EC50 read?
**A.** The EC50 was 0.819 µM.

**Q.** Which EC50 does the source give for `C[C@H](Cn1cnc2c(N)ncnc21)OCP(=O)(O)O` [CHEBI:63625] here?
**A.** The EC50 was 0.242 µM.

**Q.** With `C=C1[C@H](CO)[C@@H](O)C[C@@H]1n1cnc2c(=O)[nH]c(N)nc21` [CHEBI:473990] as the molecule, how does the EC50 read?
**A.** Its EC50 is 0.00024 µM.

— BindingDB's records for doi:10.1016/j.bmc.2016.12.017 (Sunshine Lake Pharma, 2017)
